Values of other authors, collected in patent publication US20230134563A1, “SUBLINGUAL CANNABINOID COMPOSITIONS” (ALVIT LCS PHARMA LTD., priority 2017, published 2023).

Details: single component (oil or surfactant)

## CCCCCc1cc(O)c2c(c1)OC(C)(C)[C@@H]1CCC(C)=C[C@@H]21 [THC, tetrahydrocannabinol]
  HLB: 0.754
